According to patent publication US4665224A, “Ester of (+) 6-methoxy-α-methyl-2-naphthalene acetic acid having mucosecretolytic, anti-inflammatory, analgesic, antipyretic activity, a process for its preparation and pharmaceutical compositions thereof” (priority 1984, dated 1987):

Columns and labels:
yeast induced pyrexia = test: Antipyretic activity, yeast induced pyrexia in the rat; type: in vivo, rat (Wistar albine, female); conditions: for ED50: Rattus norvegicus, po, read-out: ED50 in mg/kg os.
Procedure: Method of yeast induced pyrexia in the rat.
Female Wistar albine rats, weighing 100-140 g, are employed. Animals having a rectal basal temperature from 36° to 37° C. are selected.
The testing substances are administered orally simultaneously with the pyretic agent (dry brewer's yeast suspended in water at 20% concentration,administered volume 15 ml/kg, subcutaneously) to groups of 5 animals per dose.
After 4,5,6,7 and 24 hours from the treatment, the rectal temperature of the animals is recorded by an Ellab RM6 probe, connected to an Ellab mod. TE-3 thermometer.
The activity of the drugs is evaluated by utilizing a temperature index which is given by the algebraic sum of the differences in the rectal temperature between the measured values at different times and the basal value.

mouse = test: in vivo; conditions: oral, result in words
Procedure: (§1) Method for studying the lethal dose 50 (LD50) in the mouse after a single administration.
(§2) Groups of 10 Swiss albine, female, adult mice (20-22 grams of body weight) fasting from the evening preceding the test, are treated orally with varying doses of the test drup suspended into hydroxyethylcellulose (0.5% w/v.)
(§3) Thereafter, the animals are fed again.

in vivo = conditions: mouse, in vivo, po
Procedure: as §1, §2, §3

[1] = test system: gastric lesions or submucosa hemorrhages; test: Gastric tolerability, gastric ulcerogenesys by repeated drug administrations; type: in vivo, rat (Wistar albine, female); conditions: rat, oral for 5 days, result in words
Procedure: Method of gastric ulcerogenesys by repeated drug administrations.
Fed female Wistar albine rats (140-160 g of initial body weight) are used.
The test drug is administered orally for 5 days. At the end of the experiment, the rat's stomach is withdrawn, it is dissected along the lesser curvature, washed and observed in order to disclose the presence of either gastric lesions or manifest submucosa hemorrhages.

[2] = test system: carrageenin induced oedema; test: Antiphlogistic activity, carrageenin induced oedema; type: in vivo, rat (Wistar albine, female); conditions: 3 h; rat, oral, one hour before carrageenin; paw volume at three hours; read-out: ED50 in mg/kg os.
Procedure: Method of the carrageenin induced oedema according to Winter C. A. et al.--proc. Soc. Exp. Biol. Med--111, 544-7, 1962.
Female Wistar albine rats (120-160 grams of body weight) are utilized.
The test drug is administered orally one hour before injection of a carrageenin water suspension into the right hind paw (1%, injected volume […]).
The volume of the injected paw is recorded simultaneously with the carrageenin injection and three hours after the same by a plethysmometer (U. Basile, mod. 7150-Comerio, Varese).

[3] = test system: phenylquinone abdominal contractions; test: Analgesic activity, method of phenylquinone (abdominal contractions); type: in vivo, mouse (Swiss albine, female); conditions: mouse, oral; for ED50: 20 min, 30 minutes before phenylquinone, contractions during 20 minutes, read-out: ED50 in mg/kg os.
Procedure: Female Swiss albine mice (20-25 g), fasting since 2 hours are employed.
The test drug is administered orally 30 minutes before endoperitoneal injection of phenylquinone (0.08 mg/mouse).
The characteristic abdominal contractions are counted individually during a 20 minutes period.

bronchial mucus = test: Bronchosecretagogue activity, quantitative evaluation of the rabbit bronchial secretion; type: in vivo, rabbit (brown, male); conditions: for Percent increase of the bronchial mucus: second 4 h period versus first; for bronchosecretagogue / mucolytic activity: oral, result in words
From the text: Method of quantitative evaluation of the rabbit bronchial secretion according to Scuri R. et al. Boll. Chim. Farm. 119, 181-7; 1980.
Adult male brown rabbits (2.8-3.5 kg of body weight) to which a T shaped tracheal cannula is applied by surgical operation, as described in the above cited bibliographic reference, are used.
To the cannula, a container for periodical collection of the bronchial secretion is applied.
The study of mucoproduction, started on the fourth day after the operation, is divided into two periods (of 4 hours each), for collecting and measuring the secreted mucus. The action of the test drug is tested by administering it orally at the beginning of the second period of mucus collection and evaluating the percent increase in the mucus production (as measured gravimetrically) in the second period in comparison with the first period.

[4] = listed as compound of the present invention

Structure (SMILES) | ED50 (yeast induced pyrexia) | antipyretic activity (yeast induced pyrexia; rat, oral, result in words) | acute toxicity (mouse) | LD50 at 336 h (in vivo) | gastric tolerability [1, 4] | gastric tolerability ([1]; listed as ester of formula (I)) | gastric tolerability ([1]; listed as such compound) | ED50 [2] | ED50 [3] | analgesic activity versus (+)6 methoxy-α-methyl-2-naphthalene acetic acid ([3]; result in words) | Percent increase of the bronchial mucus (bronchial mucus; 600 mg/kg os.) | bronchosecretagogue / mucolytic activity (bronchial mucus; [4]) | bronchosecretagogue / mucolytic activity (bronchial mucus; listed as ester of formula (I)) | Percent increase of the bronchial mucus (bronchial mucus; 300 mg/kg os.)
COc1ccc2cc([C@H](C)C(=O)OCC3=CCC(C(C)(C)O)CC3)ccc2c1 (single isomer, unassigned; (+)) [CO/1446] | 30 mg/kg | good antipyretic activity, though lower than the control | very low acute toxicity | 4000 mg/kg | well tolerated by the gastric mucose of the rat | very good gastric tolerability | better tolerated than (+)6-methoxy-α-methyl-2-naphthalene acetic acid | 30 mg/kg | 3.9 mg/kg | significantly more active | 32% | has bronchosecretagogue activity in the rabbit | marked mucolytic activity of the bronchial secretion | –
COc1ccc2cc([C@H](C)C(=O)O)ccc2c1 [(+)6-methoxy-α-methyl-2-naphthalene acetic acid, reference compound] | 14 mg/kg | – | – | – | – | – | – | 35 mg/kg | 18.5 mg/kg | – | – | – | – | 0%
